1 compound from patent US10548940B2, “Pharmaceutical composition for controlling blood lipids and body weight, and use thereof” (BEIJING HEBABIZ MANAGEMENT CO., LTD, priority 2014, dated 2020) can be followed below.

Assay [1] has as its system hyperlipidemia rats. Kind of assay: Effect of drugs on reducing blood lipid and body weight in high fat diet rats (Examples 5). It is filed as in vivo, Wistar rats. The protocol: Take the medicine ZL004, ZL005 and ZL006, 0.5% CMC-Na (carboxymethyl cellulose sodium) solution (25 mg/ml or 50 mg/ml); take atorvastatin as positive control drug (0.5% CMC-Na solution, 0.5 mg/ml), for the following experiment.
120 Wistar rats (male weight; 150 g; feeding environment: SPF grade animal room, free feeding, 12 h light/12 h dark) after adaptive breeding for one week, were randomly divided into normal control group (10 rats) and high-fat diet group (110 rats), and each rat was then numbered. The normal control group were fed with normal diet, high fat diet group were fed with high fat diet (78.8% basal diet (purchased from Beijing, Australia to feed Co. Ltd.) +1% cholesterol, +10% egg yolk powder, +10% lard, +0.2% sodium cholate), 30 days later, after determination, the hyperlipemia rats of high fat diet group were randomly divided into 10 groups (high fat model group, atorvastatin group (atorvastatin 5 mg/kg daily administration), ZL004 high dose group (daily administration of ZL004 500 mg/kg), ZL004 low dose group (daily administration of ZL004 […]), ZL005 high dose group (daily administration of ZL005 500 mg/kg), ZL005 low dose group (daily administration of ZL005 […]), ZL006 high dose group (daily administration of ZL006 500 mg/kg), ZL006 low dose group (daily administration of ZL006 […]), 10 rats in each group. The normal control group and high fat model group daily orally administered 0.5% CMC-Na solution, drug admonition group were orally administered with corresponding drugs administered continuously for 30 days to determine the levels of total cholesterol (TC), triacylglycerol (TG), high density lipoprotein cholesterol (HDL-C), low density lipoprotein cholesterol (LDL-C) and weight. No safety problems were found in the experiment.

For assay [2], the system named is hyperlipidemia rats. Kind of assay: Further study on the effect of drugs on lowering blood fat and body weight in high fat diet rats, lower doses (Examples 6). It is filed as in vivo, Wistar rats. On the procedure: Take ZL004, ZL051 and ZL006 (0.5% CMC-Na solution, 7.5 mg/ml, 15 mg/ml, or 30 mg/ml), take atorvastatin as positive control drug (0.5% CMC-Na solution, 0.5 mg/ml), for the following experiment.
130 Wistar rats (male weight; 150 g; feeding environment: SPF grade animal room, free feeding, 12 h light/12 h dark) after adaptive breeding for one week, were randomly divided into normal control group (10 rats) and high-fat diet group (120 rats), and each rat was then numbered. The normal control group were fed with normal diet, high fat diet group were fed with high fat diet (78.8% basal diet (purchased from Beijing, Australia to feed Co. Ltd.)+1% cholesterol, +10% egg yolk powder, +10% lard, +0.2% sodium cholate), After 30 days, after determination, the hyperlipemia rats of high fat diet group were randomly divided into 10 groups (high fat model group, atorvastatin group (atorvastatin 5 mg/kg daily administration), ZL004 high dose group (daily administration of ZL004 300 mg/kg), ZL004 middle dose group (daily administration of ZL004 150 mg/kg), ZL004 low dose group (daily administration of ZL004 75 mg/kg), ZL051 high dose group (daily administration of ZL051 300 mg/kg), ZL051 middle dose group (daily administration of ZL051 150 mg/kg), ZL051 low dose group (daily administration of ZL051 75 mg/kg), ZL006 high dose group (daily administration of ZL006 300 mg/kg), ZL006 middle dose group (daily administration of ZL006 150 mg/kg), ZL006 low dose group (daily administration of ZL006 75 mg/kg), 10 rats in each group. The normal control group and high fat model group daily orally administered 0.5% CMC-Na solution, drug admonition group were orally administered with corresponding drugs administered continuously for 30 days to determine the levels of total cholesterol (TC), triacylglycerol (TG), high density lipoprotein cholesterol (HDL-C), low density lipoprotein cholesterol (LDL-C) and weight. No safety problems found in the experiment.

Setting [3] is: each dose (250 and 500 mg/kg), atorvastatin 5 mg/kg, oral daily 30 days, versus model group.
The mark [4] stands for this setting: high fat diet hyperlipidemia rats, oral daily for 30 days, 5 mg/kg, model group = 100%.
Setting [5] is: high fat diet hyperlipidemia rats, oral daily for 30 days, 5 mg/kg, x ± s, n = 10.
Setting [6] is: serum HDL cholesterol, high fat rats, oral daily 30 days, 5 mg/kg, model group = 100%, x ± s, n = 10.
Where [7] appears, read: serum LDL cholesterol, high fat rats, oral daily 30 days, 5 mg/kg, model group = 100%, x ± s, n = 10.
Where [8] appears, read: serum total cholesterol, high fat rats, oral daily 30 days, 5 mg/kg, model group = 100%, x ± s, n = 10.
The mark [9] stands for this setting: serum triacylglycerol, high fat rats, oral daily 30 days, 5 mg/kg, model group = 100%, x ± s, n = 10.

For `CC(C)c1c(C(=O)Nc2ccccc2)c(-c2ccccc2)c(-c2ccc(F)cc2)n1CC[C@@H](O)C[C@@H](O)CC(=O)O` [Atorvastatin, atorvastatin], the “effect on the body weight of hyperlipidemia rats (in words)” value in assay [1] (each dose (250 and 500 mg/kg), atorvastatin 5 mg/kg, oral daily 30 days, versus high fat model group) is given as “reduced the body weight, close to or even lower than the normal control group”; in assay [2] (each dose (75, 150, 300 mg/kg), atorvastatin 5 mg/kg, oral daily 30 days, versus high fat model group), “reduced the body weight, close to or even lower than the normal control group”. The “effect on HDL-C (in words)” value in assay [1] (setting [3]) is on record as “significantly increase”; in assay [2] (each dose (75, 150, 300 mg/kg), atorvastatin 5 mg/kg, oral daily 30 days, versus model group), “significantly increase”. Further, the “effect on rat serum TC, TG, LDL-C (in words)” value in assay [1] (setting [3]) is reported as “significantly reduce”; in assay [2] (middle/high doses (150, 300 mg/kg), atorvastatin 5 mg/kg, oral daily 30 days, versus model group), “significantly reduce”. For the same compound, the “body weight % (/high fat model group)” value was found to be 90.77 ± 9.22% in assay [1] (setting [4]) and 90.37 ± 12.13% in assay [2] (setting [4]). Moreover, the “body weight” value in assay [1] (setting [5]) is reported as 520.1 ± 52.8 g; in assay [2] (setting [5]), 465.7 ± 62.5 g. Further, the “HDL-C % (/model group)” value is given as 178.57 ± 57.92 % in assay [1] (setting [6]) and 176.99 ± 37.57 % in assay [2] (setting [6]). Moreover, the “LDL-C % (/model group)” value in assay [1] (setting [7]) is recorded as 33.13 ± 11.62 %; in assay [2] (setting [7]), 67.93 ± 29.54 %. In addition, the “TC % (/model group)” value in assay [1] (setting [8]) stood at 81.77 ± 14.65 %; in assay [2] (setting [8]), 77.03 ± 23.18 %. The entries for the “TG % (/model group)” value in assay [1] (setting [9]) and in assay [2] (setting [9]) were 70.50 ± 23.19 % and 69.99 ± 17.21 %, respectively.
